# Assay: solvent given as SMILES
smiles,measurement,setting,value
CN(C)c1ccc(/C=C2/N=C(c3ccccc3)OC2=O)cc1,absorption maximum,in C1CCCCC1,456 nm
same,absorption maximum,in C1COCCO1,466 nm
same,absorption maximum,in CC#N,473 nm
same,absorption maximum,in CC(C)=O,470 nm
same,absorption maximum,in CC(C)O,470 nm
same,absorption maximum,in CCCCCC,443 nm
same,absorption maximum,in CCCCCO,470 nm
same,absorption maximum,in CCCCO,472 nm
same,absorption maximum,in CCO,470 nm
same,absorption maximum,in CN(C)C=O,482 nm
same,absorption maximum,in CO,473 nm
same,absorption maximum,in ClC(Cl)(Cl)Cl,466 nm
same,absorption maximum,in ClC(Cl)Cl,472 nm
same,absorption maximum,in ClCCl,472 nm
CCOC(=O)c1cc(C(=O)OCC)c2cc(OC)ccc2n1,absorption maximum,in CCO,355 nm
C#CCOc1ccc(/C=C/C2=[N+]3C(=C(c4ccc(N(C)CC)cc4)c4c(C)cc(C)n4[B-]3(F)F)C(C)=C2)cc1,absorption maximum,in CO,569 nm
c1ccc(-c2nc(-c3c[nH]c4ccccc34)n3ccccc23)cc1,absorption maximum,in C1CCCCC1,382 nm
same,absorption maximum,in CC#N,381 nm
same,absorption maximum,in CO,372 nm
same,absorption maximum,in ClCCl,380 nm
same,absorption maximum,in O,390 nm
CCCCCCCCN1c2ccccc2Sc2cc(/C=C/c3ccc(N(c4ccc(/C=C/c5ccc6c(c5)Sc5ccccc5N6CCCCCCCC)cc4)c4ccc(/C=C/c5ccc(/C=C/c6ccc(N(c7ccc(/C=C/c8ccc(N(c9ccccc9)c9ccccc9)cc8)cc7)c7ccc(/C=C/c8ccc(N(c9ccccc9)c9ccccc9)cc8)cc7)cc6)c6nsnc56)cc4)cc3)ccc21,absorption maximum,in C1CCOC1,534 nm
same,absorption maximum,in CCOC(C)=O,524 nm
same,absorption maximum,in CN(C)C=O,528 nm
same,absorption maximum,in Cc1ccccc1,533 nm
same,absorption maximum,in ClC(Cl)Cl,534 nm
same,absorption maximum,in ClCCl,533 nm
CC1(C)C(/C=C/C2=C(Cl)C(=C/C=C3/N(CCCCCC(=O)O)c4ccccc4C3(C)C)/CCC2)=[N+](CCCCCC(=O)O)c2ccccc21,absorption maximum,in CO,782 nm
Cc1ccc(C(=O)OCc2c(C)c(=O)n3c(=O)c(C)c(C)n23)cc1,absorption maximum,in CCO,376 nm
N#Cc1ccc(-n2cccc2)cc1,absorption maximum,in C1CCOC1,287 nm
same,absorption maximum,in CC#N,287 nm
same,absorption maximum,in CCCCCC,287 nm
same,absorption maximum,in CCOCC,287 nm
same,absorption maximum,in ClCCl,287 nm
CC(C)[Si](C#Cc1c2ccccc2c(C#Cc2c3ccccc3c(C#Cc3c4ccccc4c(C#Cc4c5ccccc5c(C#C[Si](C(C)C)(C(C)C)C(C)C)c5ccccc45)c4ccccc34)c3ccccc23)c2ccccc12)(C(C)C)C(C)C,absorption maximum,in Cc1ccccc1,582 nm
CCOC(=O)C(Cc1ccc(O[Si]2(Oc3ccc(CC(NC(C)=O)C(=O)OCC)cc3)n3c4c5ccccc5c3/N=C3N=C(/N=c5/c6ccccc6/c(n52)=N/C2=NC(=N\4)/c4ccccc42)c2ccccc2\3)cc1)NC(C)=O (stereo not drawn),absorption maximum,in CN(C)C=O,681 nm
COc1ccc2n1[B-](F)(F)[N+]1=CC=CC1=C2c1ccccc1,absorption maximum,in CC#N,493 nm
same,absorption maximum,in CCCCCC,499 nm
same,absorption maximum,in CCOC(C)=O,495 nm
same,absorption maximum,in CO,495 nm
same,absorption maximum,in ClCCl,499 nm
COc1cc2c(cc1-c1ccc(C#N)cc1)Cc1c3c(c4c(c1-2)-c1cc(OC)c(-c2ccc(C#N)cc2)cc1C4)C(=O)N(CCC(C)C)C3=O,absorption maximum,in C1CCOC1,409 nm
COc1ccc(-c2cc3c(s2)c(C(C)=O)cc(=O)n3C)cc1,absorption maximum,in CC#N,412 nm
same,absorption maximum,in ClCCl,418 nm
COc1ccc2cc([C@H](C)C(=O)O)ccc2c1,absorption maximum,in CC#N,332.4 nm
same,absorption maximum,in CCCCO,333.3 nm
same,absorption maximum,in CCO,332.2 nm
same,absorption maximum,in CO,332.4 nm
same,absorption maximum,in ClCCl,333.6 nm
same,absorption maximum,in O,331.2 nm
c1ccc2[nH]c(-c3ccc(-c4ccc(-c5ccc(-c6nc7ccccc7[nH]6)cc5)cc4)cc3)nc2c1,absorption maximum,in CN(C)C=O,349 nm
CCC1=C(C)C(=O)n2c1cc1c(C)c(CCC(=O)O)c(C)n1c2=O,absorption maximum,in CC#N,408 nm
same,absorption maximum,in CC(C)=O,413 nm
same,absorption maximum,in CO,425 nm
same,absorption maximum,in CS(C)=O,426 nm
same,absorption maximum,in ClC(Cl)Cl,428 nm
same,absorption maximum,in c1ccccc1,421 nm
CCC1(CC)c2cc(/C=C/c3ccc(/C=C/c4ccc5c(c4)C(CC)(CC)c4cc(N6c7ccccc7Sc7ccccc76)ccc4-5)cc3)ccc2-c2ccc(N3c4ccccc4Sc4ccccc43)cc21,absorption maximum,in C1CCOC1,444.73 nm
same,absorption maximum,in CC#N,441.5 nm
same,absorption maximum,in CCCCCC,440.65 nm
same,absorption maximum,in Cc1ccccc1,446.43 nm
same,absorption maximum,in ClCCl,418 nm
CC(C)(C)c1ccc2c(c1)c1cc(C(C)(C)C)ccc1n2-c1c(C#N)c(-n2c3ccc(C(C)(C)C)cc3c3cc(C(C)(C)C)ccc32)c(-n2c3ccc(C(C)(C)C)cc3c3cc(C(C)(C)C)ccc32)c(-n2c3ccc(C(C)(C)C)cc3c3cc(C(C)(C)C)ccc32)c1-n1c2ccc(C(C)(C)C)cc2c2cc(C(C)(C)C)ccc21,absorption maximum,in Cc1ccccc1,427.95 nm

# Source: the Deep4Chem optical property database
